Source: patent publication US20150065416A1, “NOVEL DRUG COMBINATION” (FAB PHARMA SAS, priority 2013, published 2015)
Values after ≈ are worked out from the molar mass of the structure shown. Like-named read-outs stand apart in the source and are kept apart here.

Experiments:
[1] = test system: A. baumannii isolates; test: Individual antimicrobial susceptibility testing (MIC, broth microdilution, CLSI); type: cell-based, Acinetobacter baumannii; details: for MIC50 / MIC90: Acinetobacter baumannii
Outline: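 Broth microdilution per CLSI M7-A8/M100-S22 in cation-adjusted Mueller-Hinton broth, inoculum from 0.5 McFarland saline suspension. 77 A. baumannii isolates from 2010: susceptible, carbapenem-, aminoglycoside- and colistin-resistant groups. Reported as MIC range, MIC50 and MIC90.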

[2] = test system: A. baumannii isolates; test: Time kill study (Example 4); type: cell-based, Acinetobacter baumannii; details: for Time to kill 99.9%: alone; for MIC: Acinetobacter baumannii, read-out: MIC
Protocol: A total of 12 isolates were tested (three per sub-group either susceptible, meropenem-resistant, amikacin-resistant or colistin-resistant). Two combinations were tested per isolate. Time-kill kinetics were performed by testing compound (I) and an additional antibacterial agent (amikacin, colistin and meropenem) individually at 1× and 4× the corresponding MIC of each antibacterial agent. […] Samples were taken at 0, 2, 4, 8 and 24 hours in order to determine colony forming units (CFU/mL).
Time-kill studies were carried out as described in General Procedures using combinations of compound (I) with amikacin, meropenem and colistin, respectively.

[3] = test system: A. baumannii SAN strain; test: Bactericidal activity (time kill kinetics, Example 5); type: cell-based, Acinetobacter baumannii; details: alone at 2×MIC
Protocol: In addition, a second set of experiments involved the testing of compound(I)/additional antibacterial agent combinations of 2×/2×MIC. Samples were taken at 0, 3, 6 and 24 hours in order to determine colony forming units (CFU/mL).

[4] = test system: A. baumannii SAN-94040; test: Mouse model of A. baumannii pneumonia, Study 1: survival; type: in vivo, Acinetobacter baumannii
Protocol: The bacterial inoculum was prepared in order to obtain a suspension containing 10^8 CFU/mL of Acinetobacter baumannii in saline.
Experimentations were performed with six-week old female C3H/HeN mice (18-20 g, Breeding Centre JANVIER (Ile saint Genest Mayenne 53)) because of their particular susceptibility to Acinetobacter baumannii and the reproducibility of the results (inbreeding in the breed). Each mouse was individually marked and housed in cages containing five animals/cage under ventilated and controlled (temperature and humidity) atmosphere.
The mice were rendered transiently neutropenic by 2 intra-peritoneal (IP) injections of 150 μL of cyclophosphamide (Endoxan® 150 mg/kg) 4 (D-4) and 3 (D-3) days before the Acinetobacter baumannii inoculation (Day 0). This transient immunosuppression was sufficient to facilitate the development of the A. baumannii pneumonia while allowing the recovery of the neutrophil influx 2 (Day 2) days after inoculation in order to avoid or limit a systemic bacterial dissemination.
Mice were anesthetized by a mixture of oxygen and isoflurane. The bacterial inoculation was performed on Day 0 by intra-tracheal installation using an endotracheal catheter (50 μl of the suspension, thus 5.106 CFU). The positioning of the catheter in the trachea (instead of in the oesophagus) was checked by a “ring test”. The bacterial count in lungs was checked for all study groups by sacrificing one mouse immediately after inoculation.
Survival observations were assessed twice daily, up to 4 days post infection. The survival rates were compared with the Chi-square test or the Fisher exact test as appropriate. The survival curves were compared by the Kaplan-Meier method.
The aim of this experiment was to assess the […], with compound (I) via intra-peritoneal route at 200 mg/kg 3 times daily (every 8 hours) for 1 day alone and in combination with meropenem at 50 mg/kg 3 times daily (every 8 hours) for 1 day or with amikacin at 18 mg/kg 3 times daily (every 8 hours) for 1 day.

[5] = Amikacin-resistant isolates, N=20
[6] = Colistin-resistant isolates, N=15
[7] = Meropenem-resistant isolates, N=20
[8] = Study 1, 24 h after infection, doses as E210
[9] = Study 1, 48 h after infection, doses as E210
[10] = Study 1, 72 h after infection, doses as E210
[11] = Study 1, 96 h after infection, doses as E210

C[C@@H](O)[C@H]1C(=O)N2C(C(=O)O)=C(S[C@@H]3CN[C@H](C(=O)N(C)C)C3)[C@H](C)[C@H]12 [meropenem]
MIC50 ([1]; All isolates, N=77): 4 µg/mL (≈ 10.4 µM) | MIC90 ([1]; All isolates, N=77): > 32 µg/mL | MIC50 [1, 5]: 2 µg/mL (≈ 5.22 µM) | MIC90 [1, 5]: 16 µg/mL (≈ 41.7 µM) | MIC50 [1, 6]: 32 µg/mL (≈ 83.4 µM) | MIC90 [1, 6]: > 32 µg/mL | MIC50 [1, 7]: > 32 µg/mL | MIC90 [1, 7]: > 32 µg/mL | MIC50 ([1]; Susceptible isolates, N=22): 0.25 µg/mL (≈ 0.652 µM) | MIC90 ([1]; Susceptible isolates, N=22): 2 µg/mL (≈ 5.22 µM) | MIC Range [1, 5]: 0.5 to 32 µg/mL | MIC Range ([1]; Susceptible isolates, N=22): 0.06 to 4 µg/mL | Time to kill 99.9% ([2]; AMK-R-1, 1xMIC): 5.2 h | Time to kill 99.9% ([2]; AMK-R-1, 4xMIC): 3.2 h | Time to kill 99.9% ([2]; AMK-R-2, 1xMIC): >24 h | Time to kill 99.9% ([2]; AMK-R-2, 4xMIC): 6.1 h | Time to kill 99.9% ([2]; AMK-R-3, 1xMIC): 3.6 h | Time to kill 99.9% ([2]; AMK-R-3, 4xMIC): 1.8 h | MIC ([2]; isolate AMK-R-1): 4 µg/mL | MIC ([2]; isolate AMK-R-2): 16 µg/mL | MIC ([2]; isolate AMK-R-3): 16 µg/mL | MIC ([2]; isolate COL-R-1): 64 µg/mL | MIC ([2]; isolate COL-R-2): 0.25 µg/mL | MIC ([2]; isolate COL-R-3): 16 µg/mL | Time to kill 99.9% ([2]; COL-R-1, 1xMIC): 3.6 h | Time to kill 99.9% ([2]; COL-R-1, 4xMIC): 3.6 h | Time to kill 99.9% ([2]; COL-R-2, 1xMIC): >24 h | Time to kill 99.9% ([2]; COL-R-2, 4xMIC): 5.8 h | Time to kill 99.9% ([2]; COL-R-3, 1xMIC): >24 h | Time to kill 99.9% ([2]; COL-R-3, 4xMIC): 3.2 h | effect in time-kill studies when tested alone ([2]; alone at 1× or 4×MIC): generally bactericidal | effect in time-kill study when tested alone [3]: bactericidal | survivors (%) ([4]; Study 1, 0 h after infection, doses as E210): 100% | No. of survivors [4, 8]: 14 | survivors (%) [4, 8]: 100% | No. of survivors [4, 9]: 11 | survivors (%) [4, 9]: 79% | No. of survivors [4, 10]: 6 | survivors (%) [4, 10]: 43% | No. of survivors [4, 11]: 6 | survivors (%) [4, 11]: 43% | No. of survivors ([4]; Study 1, C3H/HeN mice, 0 h after SAN-94040 infection, compound (I) 200 mg/kg, amikacin 18 mg/kg, meropenem 50 mg/kg q 8 h I.P.): 14 | efficacy compared to the control group ([4]; Study 1, survival): significant efficacy
